Measurements: paper PMC6738068 (British Journal of Cancer, 2019)
Where “and” joins values, the source holds several entries; their conditions need not be identical. Equal entries are not always repeated.

Columns and labels:
[1] = test system: patients with advanced solid tumours; assay: Phase 1 safety: treatment-related adverse events (CTCAE v4.03); format: in vivo, human
Method: All patients who received at least one dose of CFI-400945 were included in analyses of the safety-evaluable population. Data cut-off for the safety-evaluable population was June 5, 2018. Adverse events (AEs) were assessed according to the National Cancer Institute (NCI) Common Terminology Criteria for Adverse Events (CTCAE) v4.03. Investigators determined the causal relationship of an AE as either unrelated, possibly, probably, or related to study drug. Further information is available in Supplementary Information 1d.
Investigators managed any AE until resolution, stabilization, or until the AE was considered no longer clinically significant. All AE and serious AE (SAE) were recorded in source documents and individual case report forms from the time of first dose of study drug until 30 days following the last dose of study drug.
Safety evaluations were conducted at screening and during Cycle 1 on Day 1, 2, 4, 8, 11, 15, 22, and 28. In the expansion cohort, following the run-in amendment, safety evaluations were conducted on Cycle 0 Day 1, 2, 4, 8, and 11, then as above for Cycle 1. Evaluations included pre-defined combinations of medical history, physical examination, vital signs, clinical laboratory studies, and ECOG performance status.

advanced solid tumours = assay: Phase 1 efficacy assessment (RECIST v1.1); format: in vivo, human
Method: Diagnostic imaging response assessments (computed tomography or magnetic resonance imaging) were performed at baseline and at the end of every two cycles or as clinically indicated. All patients who had at least one post-baseline radiographic assessment of target, non-target, and new lesions constituted the efficacy-evaluable population. Patients were evaluated for complete response (CR), partial response (PR), stable disease (SD) ≥6 months, or progressive disease as determined by RECIST v1.1.[17] Objective response rate (ORR = CR + PR) and clinical benefit rate (CBR = CR + PR + SD ≥ 6 months) were evaluated. Data cut-off for the efficacy-evaluable population was January 21, 2019.

Bmx = test system: Bmx; set-up: method as in printed; settings: preclinical, ref not given; cited from earlier work
FGFR2 = test system: FGFR2; set-up: method as in printed; settings: preclinical, ref not given; cited from earlier work
[2] = test system: cytochrome P450 (CYP) enzyme 1A2; set-up: method as in printed; settings: preclinical testing, ref not given; cited from earlier work
BSEP = test system: BSEP; set-up: method as in printed; settings: preclinical testing, ref not given; cited from earlier work
OCT2 = test system: OCT2; set-up: method as in printed; settings: preclinical testing, ref not given; cited from earlier work
OATP1B3 = test system: OATP1B3; set-up: method as in printed; settings: preclinical testing, ref not given; cited from earlier work
[3] = safety-evaluable population (n = 52)
[4] = efficacy-evaluable population (n = 49)
[5] = patient with AKT1 E17K mutant endometrioid endometrial carcinoma
[6] = patient with MSS endometrial carcinoma

COc1ccc2c(c1)[C@]1(C[C@H]1c1ccc3c(/C=C/c4ccc(CN5C[C@@H](C)O[C@@H](C)C5)cc4)n[nH]c3c1)C(=O)N2 [CFI-400945]
grade 2 neutropenia ([1]; 48 mg dose level): one patient
long-term tolerability: time one patient remained on treatment ([1]; 48 mg, at data cut-off): > 3 years
patients dose reduced ([1]; 64 mg): No patients
patients dose reduced ([1]; 3 patients, at 72 mg and 96 mg dose levels, recurrent neutropenia): 6%
Anorexia, treatment-related, Grade 1/2 ([1]; 3–32 mg cohort (n = 21)): 4 (19) N (%)
Anorexia, treatment-related, Grade 3/4 ([1]; 3–32 mg cohort (n = 21)): 0 (0) N (%)
Dehydration, treatment-related, Grade 1/2 ([1]; 3–32 mg cohort (n = 21)): 1 (5) N (%)
Dehydration, treatment-related, Grade 3/4 ([1]; 3–32 mg cohort (n = 21)): 0 (0) N (%)
Diarrhoea, treatment-related, Grade 1/2 ([1]; 3–32 mg cohort (n = 21)): 4 (19) N (%)
Diarrhoea, treatment-related, Grade 3/4 ([1]; 3–32 mg cohort (n = 21)): 0 (0) N (%)
Dyspepsia, treatment-related, Grade 1/2 ([1]; 3–32 mg cohort (n = 21)): 1 (5) N (%)
Dyspepsia, treatment-related, Grade 3/4 ([1]; 3–32 mg cohort (n = 21)): 0 (0) N (%)
Fatigue, treatment-related, Grade 1/2 ([1]; 3–32 mg cohort (n = 21)): 5 (24) N (%)
Fatigue, treatment-related, Grade 3/4 ([1]; 3–32 mg cohort (n = 21)): 0 (0) N (%)
Hypomagnesaemia, treatment-related, Grade 1/2 ([1]; 3–32 mg cohort (n = 21)): 0 (0) N (%)
Hypomagnesaemia, treatment-related, Grade 3/4 ([1]; 3–32 mg cohort (n = 21)): 0 (0) N (%)
Nausea, treatment-related, Grade 1/2 ([1]; 3–32 mg cohort (n = 21)): 3 (14) N (%)
Nausea, treatment-related, Grade 3/4 ([1]; 3–32 mg cohort (n = 21)): 0 (0) N (%)
Neutropenia, treatment-related, Grade 1/2 ([1]; 3–32 mg cohort (n = 21)): 0 (0) N (%)
Neutropenia, treatment-related, Grade 3/4 ([1]; 3–32 mg cohort (n = 21)): 0 (0) N (%)
Vomiting, treatment-related, Grade 1/2 ([1]; 3–32 mg cohort (n = 21)): 1 (5) N (%)
Vomiting, treatment-related, Grade 3/4 ([1]; 3–32 mg cohort (n = 21)): 0 (0) N (%)
Anorexia, All trAEs ([1]; 3–96 mg cohort (n = 52)): 10 (19) N (%)
Dehydration, All trAEs ([1]; 3–96 mg cohort (n = 52)): 3 (6) N (%)
Diarrhoea, All trAEs ([1]; 3–96 mg cohort (n = 52)): 11 (21) N (%)
Dyspepsia, All trAEs ([1]; 3–96 mg cohort (n = 52)): 3 (6) N (%)
Fatigue, All trAEs ([1]; 3–96 mg cohort (n = 52)): 19 (37) N (%)
Hypomagnesaemia, All trAEs ([1]; 3–96 mg cohort (n = 52)): 3 (6) N (%)
Nausea, All trAEs ([1]; 3–96 mg cohort (n = 52)): 14 (27) N (%)
Neutropenia, All trAEs ([1]; 3–96 mg cohort (n = 52)): 11 (21) N (%)
Vomiting, All trAEs ([1]; 3–96 mg cohort (n = 52)): 4 (8) N (%)
grade 3/4 neutropenic events occurring in Cycle 1 ([1]; 6/10 events): 60%
grade 3/4 treatment-related neutropenia, patients ([1]; 10/52 patients, all dose levels): 19%
patients with dose interruptions ([1]; 27 of 52 patients): 52%
Anorexia, treatment-related, Grade 1/2 ([1]; 48–64 mg cohort (n = 18)): 2 (11) N (%)
Anorexia, treatment-related, Grade 3/4 ([1]; 48–64 mg cohort (n = 18)): 0 (0) N (%)
Dehydration, treatment-related, Grade 1/2 ([1]; 48–64 mg cohort (n = 18)): 1 (6) N (%)
Dehydration, treatment-related, Grade 3/4 ([1]; 48–64 mg cohort (n = 18)): 0 (0) N (%)
Diarrhoea, treatment-related, Grade 1/2 ([1]; 48–64 mg cohort (n = 18)): 3 (17) N (%)
Diarrhoea, treatment-related, Grade 3/4 ([1]; 48–64 mg cohort (n = 18)): 1 (6) N (%)
Dyspepsia, treatment-related, Grade 1/2 ([1]; 48–64 mg cohort (n = 18)): 1 (6) N (%)
Dyspepsia, treatment-related, Grade 3/4 ([1]; 48–64 mg cohort (n = 18)): 0 (0) N (%)
Fatigue, treatment-related, Grade 1/2 ([1]; 48–64 mg cohort (n = 18)): 9 (50) N (%)
Fatigue, treatment-related, Grade 3/4 ([1]; 48–64 mg cohort (n = 18)): 0 (0) N (%)
Hypomagnesaemia, treatment-related, Grade 1/2 ([1]; 48–64 mg cohort (n = 18)): 1 (6) N (%)
Hypomagnesaemia, treatment-related, Grade 3/4 ([1]; 48–64 mg cohort (n = 18)): 0 (0) N (%)
Nausea, treatment-related, Grade 1/2 ([1]; 48–64 mg cohort (n = 18)): 5 (28) N (%)
Nausea, treatment-related, Grade 3/4 ([1]; 48–64 mg cohort (n = 18)): 0 (0) N (%)
Neutropenia, treatment-related, Grade 1/2 ([1]; 48–64 mg cohort (n = 18)): 1 (6) N (%)
Neutropenia, treatment-related, Grade 3/4 ([1]; 48–64 mg cohort (n = 18)): 3 (17) N (%)
Vomiting, treatment-related, Grade 1/2 ([1]; 48–64 mg cohort (n = 18)): 1 (6) N (%)
Vomiting, treatment-related, Grade 3/4 ([1]; 48–64 mg cohort (n = 18)): 1 (6) N (%)
Anorexia, treatment-related, Grade 1/2 ([1]; 72–96 mg cohort (n = 13)): 4 (31) N (%)
Anorexia, treatment-related, Grade 3/4 ([1]; 72–96 mg cohort (n = 13)): 0 (0) N (%)
Dehydration, treatment-related, Grade 1/2 ([1]; 72–96 mg cohort (n = 13)): 1 (8) N (%)
Dehydration, treatment-related, Grade 3/4 ([1]; 72–96 mg cohort (n = 13)): 0 (0) N (%)
Diarrhoea, treatment-related, Grade 1/2 ([1]; 72–96 mg cohort (n = 13)): 3 (23) N (%)
Diarrhoea, treatment-related, Grade 3/4 ([1]; 72–96 mg cohort (n = 13)): 0 (0) N (%)
Dyspepsia, treatment-related, Grade 1/2 ([1]; 72–96 mg cohort (n = 13)): 1 (8) N (%)
Dyspepsia, treatment-related, Grade 3/4 ([1]; 72–96 mg cohort (n = 13)): 0 (0) N (%)
Fatigue, treatment-related, Grade 1/2 ([1]; 72–96 mg cohort (n = 13)): 5 (38) N (%)
Fatigue, treatment-related, Grade 3/4 ([1]; 72–96 mg cohort (n = 13)): 0 (0) N (%)
Hypomagnesaemia, treatment-related, Grade 1/2 ([1]; 72–96 mg cohort (n = 13)): 2 (15) N (%)
Hypomagnesaemia, treatment-related, Grade 3/4 ([1]; 72–96 mg cohort (n = 13)): 0 (0) N (%)
Nausea, treatment-related, Grade 1/2 ([1]; 72–96 mg cohort (n = 13)): 6 (46) N (%)
Nausea, treatment-related, Grade 3/4 ([1]; 72–96 mg cohort (n = 13)): 0 (0) N (%)
Neutropenia, treatment-related, Grade 1/2 ([1]; 72–96 mg cohort (n = 13)): 0 (0) N (%)
Neutropenia, treatment-related, Grade 3/4 ([1]; 72–96 mg cohort (n = 13)): 7 (54) N (%)
Vomiting, treatment-related, Grade 1/2 ([1]; 72–96 mg cohort (n = 13)): 1 (8) N (%)
Vomiting, treatment-related, Grade 3/4 ([1]; 72–96 mg cohort (n = 13)): 0 (0) N (%)
median time for neutrophils to recover to grade ≤1 ([1]; in vivo): 7 days
median time to first grade 3/4 neutropenic event ([1]; in vivo): 18 days
time for neutrophils to recover to grade ≤1, range ([1]; in vivo): 6 to 14 days
time to first grade 3/4 neutropenic event, range ([1]; in vivo): 14 to 126 days
treatment-related AEs leading to study discontinuation ([1]; one DLT at 72 mg, one DLT in 64 mg cohort): two patients
treatment-related anorexia, patients [1, 3]: 19%
treatment-related dehydration, patients [1, 3]: 6%
treatment-related diarrhoea, patients [1, 3]: 21%
treatment-related dyspepsia, patients [1, 3]: 6%
treatment-related fatigue, patients [1, 3]: 37%
treatment-related hypomagnesaemia, patients [1, 3]: 6%
treatment-related neutropenia, patients [1, 3]: 21%
treatment-related vomiting, patients [1, 3]: 8%
Progressive disease as best response (advanced solid tumours; 35/49 patients): 71%
patients with SD ≥6 months (advanced solid tumours; RECIST v1.1): two and 2/13
partial responses (PR) (advanced solid tumours; adenoid cystic carcinoma, 48 mg): One PR
ORR (advanced solid tumours; efficacy-evaluable cohort, 1/49): 2%
CBR (advanced solid tumours; efficacy-evaluable cohort, 3/49): 6%
complete responses (CR) (advanced solid tumours; [4]): No CRs
duration on study, range (advanced solid tumours; [4]): 0.1–40.7 months
median duration on study (advanced solid tumours; [4]): 1.9 months
median progression-free survival (advanced solid tumours; [4]): 3.2 months
patients with SD as best response (advanced solid tumours; [4]): 13 patients
progression-free survival, 95% confidence interval (advanced solid tumours; [4]): 1.6–4.9 months
lowest dose with evidence of antitumour activity (advanced solid tumours; in vivo): 48 mg
target lesion reduction (advanced solid tumours; [5]): −19%
time on study with SD (advanced solid tumours; [5]): 6 cycles
time on study (advanced solid tumours; patient with KRAS-mutant, MSS colorectal cancer, 48 mg): 12 cycles
duration of SD (advanced solid tumours; [6]): 8 cycles
reduction in target lesions (advanced solid tumours; [6]): 3.7%
duration of PR / time on trial, ongoing at data cut-off (advanced solid tumours; patient with adenoid cystic carcinoma, 48 mg): 45 cycles
IC50 (Bmx): < 100 nM
IC50 (FGFR2): < 100 nM
induction of CYP1A2 [2]: inducer
inhibition of BSEP (BSEP): inhibitor
inhibition of OCT2 (OCT2): inhibitor
inhibition of OATP1B3 (OATP1B3): inhibitor
